Patent US12545639B2, “3-substituted phenylamidine compounds, preparation and use thereof” (PI INDUSTRIES LTD., priority 2019, dated 2026)

Columns and labels:
Phakopsora pachyrhizi = Phakopsora pachyrhizi test in soybean, preventive, in vivo on plants; conditions: in Glycine max, read-out: Efficacy (% control), disease severity compared to the untreated check
Rhizoctonia solani = Rhizoctonia solani (rice sheath blight/potato black scurf) in vitro test, radial growth on potato dextrose agar; format: cell-based; conditions: 168 h, 300 ppm in potato dextrose agar, 25° C., 60% relative humidity, seven days, read-out: control compared to the untreated check (radial growth)
Alternaria solani = Alternaria solani (early blight of tomato/potato) in vitro test, radial growth on potato dextrose agar; format: cell-based; conditions: 168 h, 300 ppm in potato dextrose agar, 25° C., 60% relative humidity, seven days, read-out: control compared to the untreated check (radial growth)
Pyricularia oryzae = assay: microbe, parasite or virus in culture; format: cell-based; conditions: 168 h, read-out: control compared to the untreated check (radial growth)
[1] = test system: Septoria lycopersici/Corynespora cassicola (CORYCA); assay: Septoria lycopersici/Corynespora cassicola (CORYCA) (leaf spot of tomato) in vitro test, radial growth on potato dextrose agar; format: cell-based; conditions: 168 h, 300 ppm in potato dextrose agar, 25° C., 70% relative humidity, seven days, read-out: control compared to the untreated check (radial growth)
Fusarium culmorum = Fusarium culmorum (foot rot of cereals) in vitro test, radial growth on potato dextrose agar; format: cell-based; conditions: 168 h, 300 ppm in potato dextrose agar, 25° C., 60% relative humidity, seven days, read-out: control compared to the untreated check (radial growth)
Method: Compounds were dissolved in 0.3% dimethyl sulfoxide and then added to potato dextrose agar medium just prior to dispensing it into petri dishes. 5 mL medium with the compound in the desired concentration was dispensed into 60 mm sterile petri-plates. After solidification each plate was seeded with a 5 mm size mycelial disc taken from the periphery of an actively growing virulent culture plate. Plates were incubated in growth chambers at 25° C. temperature and 60% relative humidity for seven days and then the radial growth was measured and compared to that of the untreated control.

Botrytis cinerea = Botrytis cinerea (gray mold) in vitro test, radial growth on potato dextrose agar; format: cell-based; conditions: 168 h, 300 ppm in potato dextrose agar, 22° C., 90% relative humidity, seven days, read-out: control compared to the untreated check (radial growth)
Colletotrichum capsici = Colletotrichum capsici (anthracnose) in vitro test, radial growth on potato dextrose agar; format: cell-based; conditions: Colletotrichum truncatum, 168 h; 300 ppm in potato dextrose agar; 25° C., 60% relative humidity, seven days; read-out: control compared to the untreated check (radial growth)

CCN(C)C=Nc1cc(C)cc(Cc2ccccc2)c1C [Compound 207, N′-(3-benzyl-2,5-dimethylphenyl)-N-ethyl-N-methylformimidamide]
≥ 70%: pest or weed control at 500 ppm (Phakopsora pachyrhizi) | inhibition of growth at 300 ppm (Rhizoctonia solani) | inhibition of growth at 300 ppm (Alternaria solani) | inhibition of growth at 300 ppm (Pyricularia oryzae) | inhibition of growth at 300 ppm [1] | inhibition of growth at 300 ppm (Fusarium culmorum) | inhibition of growth at 300 ppm (Botrytis cinerea) | inhibition of growth at 300 ppm (Colletotrichum capsici)

CCN(C)C=Nc1cc(F)cc(Nc2ccc(C(C)(C)C)cc2)c1C [Compound 20, N′-(3-((4-(tert-butyl)phenyl)amino)-5-fluoro-2-methylphenyl)-N-ethyl-N-methylformimidamide]
≥ 70%: pest or weed control at 500 ppm (Phakopsora pachyrhizi) | inhibition of growth at 300 ppm (Rhizoctonia solani) | inhibition of growth at 300 ppm (Alternaria solani) | inhibition of growth at 300 ppm (Pyricularia oryzae) | inhibition of growth at 300 ppm [1] | inhibition of growth at 300 ppm (Fusarium culmorum) | inhibition of growth at 300 ppm (Botrytis cinerea) | inhibition of growth at 300 ppm (Colletotrichum capsici)

CCN(C)C=Nc1cc(Cl)cc(Cc2ccc(Br)cc2)c1C [Compound 125, N′-(3-(4-bromobenzyl)-5-chloro-2-methylphenyl)-N-ethyl-N-methylformimidamide]
≥ 70%: pest or weed control at 500 ppm (Phakopsora pachyrhizi) | inhibition of growth at 300 ppm (Rhizoctonia solani) | inhibition of growth at 300 ppm (Alternaria solani) | inhibition of growth at 300 ppm (Pyricularia oryzae) | inhibition of growth at 300 ppm [1] | inhibition of growth at 300 ppm (Fusarium culmorum) | inhibition of growth at 300 ppm (Botrytis cinerea) | inhibition of growth at 300 ppm (Colletotrichum capsici)

CCN(C)C=Nc1cc(C)cc(Cc2ccc(C)cc2)c1Cl [Compound 18, N′-(2-chloro-5-methyl-3-(4-methylbenzyl)phenyl)-N-ethyl-N-methylformimidamide]
≥ 70%: pest or weed control at 500 ppm (Phakopsora pachyrhizi) | inhibition of growth at 300 ppm (Rhizoctonia solani) | inhibition of growth at 300 ppm (Alternaria solani) | inhibition of growth at 300 ppm (Pyricularia oryzae) | inhibition of growth at 300 ppm [1] | inhibition of growth at 300 ppm (Fusarium culmorum) | inhibition of growth at 300 ppm (Botrytis cinerea) | inhibition of growth at 300 ppm (Colletotrichum capsici)

CCN(C)C=Nc1cc(C)cc(Cc2ccccc2Br)c1C [Compound 221, N′-(3-(2-bromobenzyl)-2,5-dimethylphenyl)-N-ethyl-N-methylformimidamide]
≥ 70%: pest or weed control at 500 ppm (Phakopsora pachyrhizi) | inhibition of growth at 300 ppm (Rhizoctonia solani) | inhibition of growth at 300 ppm (Alternaria solani) | inhibition of growth at 300 ppm (Pyricularia oryzae) | inhibition of growth at 300 ppm [1] | inhibition of growth at 300 ppm (Fusarium culmorum) | inhibition of growth at 300 ppm (Botrytis cinerea) | inhibition of growth at 300 ppm (Colletotrichum capsici)

CCN(C)C=Nc1cc(F)cc(Cc2ccc(Br)cc2F)c1C [Compound 236, N′-(3-(4-bromo-2-fluorobenzyl)-5-fluoro-2-methylphenyl)-N-ethyl-N-methylformimidamide]
≥ 70%: pest or weed control at 500 ppm (Phakopsora pachyrhizi) | inhibition of growth at 300 ppm (Rhizoctonia solani) | inhibition of growth at 300 ppm (Alternaria solani) | inhibition of growth at 300 ppm (Pyricularia oryzae) | inhibition of growth at 300 ppm [1] | inhibition of growth at 300 ppm (Fusarium culmorum) | inhibition of growth at 300 ppm (Botrytis cinerea) | inhibition of growth at 300 ppm (Colletotrichum capsici)

CCN(C)C=Nc1cc(C)cc(Cc2cccc(Cl)c2F)c1Cl [Compound 56, N′-(2-chloro-3-(3-chloro-2-fluorobenzyl)-5-methylphenyl)-N-ethyl-N-methylformimidamide]
≥ 70%: pest or weed control at 500 ppm (Phakopsora pachyrhizi) | inhibition of growth at 300 ppm (Rhizoctonia solani) | inhibition of growth at 300 ppm (Alternaria solani) | inhibition of growth at 300 ppm (Pyricularia oryzae) | inhibition of growth at 300 ppm [1] | inhibition of growth at 300 ppm (Fusarium culmorum) | inhibition of growth at 300 ppm (Botrytis cinerea) | inhibition of growth at 300 ppm (Colletotrichum capsici)

CCN(C)C=Nc1cc(C)cc(Cc2ccc(Br)cc2)c1C [Compound 223, N′-(3-(4-bromobenzyl)-2,5-dimethylphenyl)-N-ethyl-N-methylformimidamide]
≥ 70%: pest or weed control at 500 ppm (Phakopsora pachyrhizi) | inhibition of growth at 300 ppm (Rhizoctonia solani) | inhibition of growth at 300 ppm (Alternaria solani) | inhibition of growth at 300 ppm (Pyricularia oryzae) | inhibition of growth at 300 ppm [1] | inhibition of growth at 300 ppm (Fusarium culmorum) | inhibition of growth at 300 ppm (Botrytis cinerea) | inhibition of growth at 300 ppm (Colletotrichum capsici)

CCN(C)C=Nc1cc(OC)cc(Cc2ccc(C)cc2)c1C [Compound 263, N-ethyl-N′-(5-methoxy-2-methyl-3-(4-methylbenzyl)phenyl)-N-methylformimidamide]
≥ 70%: pest or weed control at 500 ppm (Phakopsora pachyrhizi) | inhibition of growth at 300 ppm (Rhizoctonia solani) | inhibition of growth at 300 ppm (Alternaria solani) | inhibition of growth at 300 ppm (Pyricularia oryzae) | inhibition of growth at 300 ppm [1] | inhibition of growth at 300 ppm (Fusarium culmorum) | inhibition of growth at 300 ppm (Botrytis cinerea) | inhibition of growth at 300 ppm (Colletotrichum capsici)

CCN(C)C=Nc1cc(C)cc(Nc2ccc(Cl)cc2)c1Cl [Compound 59, N′-(2-chloro-3-((4-chlorophenyl)amino)-5-methylphenyl)-N-ethyl-N-methylformimidamide]
≥ 70%: pest or weed control at 500 ppm (Phakopsora pachyrhizi) | inhibition of growth at 300 ppm (Rhizoctonia solani) | inhibition of growth at 300 ppm (Alternaria solani) | inhibition of growth at 300 ppm (Pyricularia oryzae) | inhibition of growth at 300 ppm [1] | inhibition of growth at 300 ppm (Fusarium culmorum) | inhibition of growth at 300 ppm (Botrytis cinerea) | inhibition of growth at 300 ppm (Colletotrichum capsici)

CCN(C)C=Nc1cc(F)cc(Cc2ccc(F)cc2)c1C [Compound 204, N-ethyl-N′-(5-fluoro-3-(4-fluorobenzyl)-2-methylphenyl)-N-methylformimidamide]
≥ 70%: pest or weed control at 500 ppm (Phakopsora pachyrhizi) | inhibition of growth at 300 ppm (Rhizoctonia solani) | inhibition of growth at 300 ppm (Alternaria solani) | inhibition of growth at 300 ppm (Pyricularia oryzae) | inhibition of growth at 300 ppm [1] | inhibition of growth at 300 ppm (Fusarium culmorum) | inhibition of growth at 300 ppm (Botrytis cinerea) | inhibition of growth at 300 ppm (Colletotrichum capsici)

CCN(C)C=Nc1cc(OC)cc(Cc2ccc(Br)cc2)c1C [Compound 287, N′-(3-(4-bromobenzyl)-5-methoxy-2-methylphenyl)-N-ethyl-N-methylformimidamide]
≥ 70%: pest or weed control at 500 ppm (Phakopsora pachyrhizi) | inhibition of growth at 300 ppm (Rhizoctonia solani) | inhibition of growth at 300 ppm (Alternaria solani) | inhibition of growth at 300 ppm (Pyricularia oryzae) | inhibition of growth at 300 ppm [1] | inhibition of growth at 300 ppm (Fusarium culmorum) | inhibition of growth at 300 ppm (Botrytis cinerea) | inhibition of growth at 300 ppm (Colletotrichum capsici)

CCN(C)C=Nc1cc(F)cc(Nc2cc(F)cc(F)c2)c1C [Compound 77, N′-(3-((3,5-difluorophenyl)amino)-5-fluoro-2-methylphenyl)-N-ethyl-N-methylformimidamide]
≥ 70%: pest or weed control at 500 ppm (Phakopsora pachyrhizi) | inhibition of growth at 300 ppm (Rhizoctonia solani) | inhibition of growth at 300 ppm (Alternaria solani) | inhibition of growth at 300 ppm (Pyricularia oryzae) | inhibition of growth at 300 ppm [1] | inhibition of growth at 300 ppm (Fusarium culmorum) | inhibition of growth at 300 ppm (Botrytis cinerea) | inhibition of growth at 300 ppm (Colletotrichum capsici)

CCN(C)C=Nc1cc(Cl)cc(Cc2ccc(Cl)cc2)c1C [Compound 126, N′-(5-chloro-3-(4-chlorobenzyl)-2-methylphenyl)-N-ethyl-N-methylformimidamide]
≥ 70%: pest or weed control at 500 ppm (Phakopsora pachyrhizi) | inhibition of growth at 300 ppm (Rhizoctonia solani) | inhibition of growth at 300 ppm (Alternaria solani) | inhibition of growth at 300 ppm (Pyricularia oryzae) | inhibition of growth at 300 ppm [1] | inhibition of growth at 300 ppm (Fusarium culmorum) | inhibition of growth at 300 ppm (Botrytis cinerea) | inhibition of growth at 300 ppm (Colletotrichum capsici)

CCN(C)C=Nc1cc(C)cc(Cc2cccc(C)c2)c1Cl [Compound 17, N′-(2-chloro-5-methyl-3-(3-methylbenzyl)phenyl)-N-ethyl-N-methylformimidamide]
≥ 70%: pest or weed control at 500 ppm (Phakopsora pachyrhizi) | inhibition of growth at 300 ppm (Rhizoctonia solani) | inhibition of growth at 300 ppm (Alternaria solani) | inhibition of growth at 300 ppm (Pyricularia oryzae) | inhibition of growth at 300 ppm [1] | inhibition of growth at 300 ppm (Fusarium culmorum) | inhibition of growth at 300 ppm (Botrytis cinerea) | inhibition of growth at 300 ppm (Colletotrichum capsici)

CCN(C)C=Nc1cc(C)cc(Cc2ccc(F)cc2)c1C [Compound 222, N-ethyl-N′-(3-(4-fluorobenzyl)-2,5-dimethylphenyl)-N-methylformimidamide]
≥ 70%: pest or weed control at 500 ppm (Phakopsora pachyrhizi) | inhibition of growth at 300 ppm (Rhizoctonia solani) | inhibition of growth at 300 ppm (Alternaria solani) | inhibition of growth at 300 ppm (Pyricularia oryzae) | inhibition of growth at 300 ppm [1] | inhibition of growth at 300 ppm (Fusarium culmorum) | inhibition of growth at 300 ppm (Botrytis cinerea) | inhibition of growth at 300 ppm (Colletotrichum capsici)

CCN(C)C=Nc1cc(C)cc(Cc2ccc(F)cc2)c1Cl [Compound 44, N′-(2-chloro-3-(4-fluorobenzyl)-5-methylphenyl)-N-ethyl-N-methylformimidamide]
≥ 70%: pest or weed control at 500 ppm (Phakopsora pachyrhizi) | inhibition of growth at 300 ppm (Rhizoctonia solani) | inhibition of growth at 300 ppm (Alternaria solani) | inhibition of growth at 300 ppm (Pyricularia oryzae) | inhibition of growth at 300 ppm [1] | inhibition of growth at 300 ppm (Fusarium culmorum) | inhibition of growth at 300 ppm (Botrytis cinerea) | inhibition of growth at 300 ppm (Colletotrichum capsici)

CCN(C)C=Nc1cc(C)cc(Cc2ccccc2Cl)c1Cl [Compound 13, N′-(2-chloro-3-(2-chlorobenzyl)-5-methylphenyl)-N-ethyl-N-methylformimidamide]
≥ 70%: inhibition of growth at 300 ppm (Rhizoctonia solani) | inhibition of growth at 300 ppm (Alternaria solani) | inhibition of growth at 300 ppm (Pyricularia oryzae) | inhibition of growth at 300 ppm [1] | inhibition of growth at 300 ppm (Fusarium culmorum) | inhibition of growth at 300 ppm (Botrytis cinerea) | inhibition of growth at 300 ppm (Colletotrichum capsici)
